“And” between values parts separate entries of the source, which are not always exact repeats. Equal values may be shown once. Toxic doses and inconclusive results are not listed. The calls were made as follows: active = survival T/C of 150% or more; inactive = T/C below 125% in these data.
Test system: P388 leukemia ip, CD2F1 mice, survival T/C
Assay: NCI In Vivo Anticancer Drug Screen. Data for tumor model P388 Leukemia (intraperitoneal) in CD2F1 (CDF1) mice
Details: endpoint: median survival time, higher = longer survival
How it was run: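 Mice carrying the transplanted tumor received test compound or vehicle. Survival was recorded in each group, and the value is the treated-group measurement divided by that of the vehicle-treated control group.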

[1] = dose: 50.0 mg/kg/injection, schedule: Q01DX005 (ip), vehicle: saline with Tween-80
[2] = dose: 100.0 mg/kg/injection, schedule: Q01DX005 (ip), vehicle: saline with Tween-80
[3] = dose: 200.0 mg/kg/injection, schedule: Q01DX005 (ip), vehicle: saline with Tween-80
[4] = dose: 60.0 mg/kg/injection, schedule: Q01DX005 (ip), vehicle: saline with Tween-80
[5] = dose: 120.0 mg/kg/injection, schedule: Q01DX005 (ip), vehicle: saline with Tween-80
[6] = dose: 240.0 mg/kg/injection, schedule: Q01DX005 (ip), vehicle: saline with Tween-80
[7] = dose: 50.0 mg/kg/injection, schedule: Q01DX009 (ip), vehicle: saline
[8] = dose: 100.0 mg/kg/injection, schedule: Q01DX009 (ip), vehicle: saline
[9] = dose: 200.0 mg/kg/injection, schedule: Q01DX009 (ip), vehicle: saline
[10] = dose: 12.5 mg/kg/injection, schedule: Q04DX003 (ip), vehicle: saline with Tween-80
[11] = dose: 25.0 mg/kg/injection, schedule: Q04DX003 (ip), vehicle: saline with Tween-80
[12] = dose: 50.0 mg/kg/injection, schedule: Q04DX003 (ip), vehicle: saline with Tween-80
[13] = dose: 100.0 mg/kg/injection, schedule: Q04DX003 (ip), vehicle: saline with Tween-80
[14] = dose: 200.0 mg/kg/injection, schedule: Q04DX003 (ip), vehicle: saline with Tween-80
[15] = dose: 12.5 mg/kg/injection, schedule: Q01DX009 (ip), vehicle: saline
[16] = dose: 25.0 mg/kg/injection, schedule: Q01DX009 (ip), vehicle: saline
[17] = dose: 6.25 mg/kg/injection, schedule: Q04DX003 (ip), vehicle: saline with Tween-80
[18] = dose: 50.0 mg/kg/injection, schedule: Q01DX005 (ip), vehicle: Klucel (hydroxypropylcellulose) (HPC)
[19] = dose: 100.0 mg/kg/injection, schedule: Q01DX005 (ip), vehicle: Klucel (hydroxypropylcellulose) (HPC)
[20] = dose: 50.0 mg/kg/injection, schedule: Q01DX009 (ip), vehicle: Klucel (hydroxypropylcellulose) (HPC)
[21] = dose: 100.0 mg/kg/injection, schedule: Q01DX009 (ip), vehicle: Klucel (hydroxypropylcellulose) (HPC)

Measured: T/C

C=C1C(=O)OC2C=CCC12 (configuration not stated)
inactive: dose: 3.13 mg/kg/injection, schedule: Q01DX009 (ip), vehicle: distilled water + Tween-80 99 % of control | dose: 6.25 mg/kg/injection, schedule: Q01DX009 (ip), vehicle: distilled water + Tween-80 99 % of control | dose: 12.5 mg/kg/injection, schedule: Q01DX009 (ip), vehicle: distilled water + Tween-80 100 % of control | dose: 25.0 mg/kg/injection, schedule: Q01DX009 (ip), vehicle: distilled water + Tween-80 107 % of control | dose: 50.0 mg/kg/injection, schedule: Q01DX009 (ip), vehicle: distilled water + Tween-80 107 % of control

S=c1[nH]ncn2nc3ccccc3c12
inactive: [1] 100 % of control | [2] 97 % of control | [3] 97 % of control

CCOc1ccncc1[N+](=O)[O-]
inactive: dose: 25.0 mg/kg/injection, schedule: Q01DX009 (ip), vehicle: saline sonified 100 % of control | dose: 50.0 mg/kg/injection, schedule: Q01DX009 (ip), vehicle: saline sonified 109 % of control | [4] 101 % of control | dose: 100.0 mg/kg/injection, schedule: Q01DX009 (ip), vehicle: saline sonified 90 % of control | [5] 93 % of control | [6] 95 % of control

Cc1oc(-c2ccccc2)nc1C(N)=O
inactive: dose: 50.0 mg/kg/injection, schedule: Q01DX009 (ip), vehicle: saline with Tween-80 106 % of control and 89 % of control and 95 % of control | dose: 100.0 mg/kg/injection, schedule: Q01DX009 (ip), vehicle: saline with Tween-80 101 % of control and 91 % of control and 96 % of control | dose: 200.0 mg/kg/injection, schedule: Q01DX009 (ip), vehicle: saline with Tween-80 99 % of control and 100 % of control

CCOC(=O)/C=C/C(=O)NNC(=O)OC(C)(C)C
inactive: dose: 12.5 mg/kg/injection, schedule: Q01DX009 (ip), vehicle: other 99 % of control | dose: 25.0 mg/kg/injection, schedule: Q01DX009 (ip), vehicle: other 93 % of control | dose: 50.0 mg/kg/injection, schedule: Q01DX009 (ip), vehicle: other 101 % of control | dose: 100.0 mg/kg/injection, schedule: Q01DX009 (ip), vehicle: other 119 % of control | dose: 200.0 mg/kg/injection, schedule: Q01DX009 (ip), vehicle: other 108 % of control

COc1cccc(C(=O)OCCC(C)C)c1O
inactive: [7] 110 % of control | [8] 110 % of control and 92 % of control | [9] 104 % of control and 117 % of control

CC1=NOC(=O)/C1=C/c1ccc2c(c1)OCO2
inactive: [1] 106 % of control | [2] 105 % of control | [3] 113 % of control

CN=C(C)c1ccc(N(C)C)cc1
inactive: [10] 100 % of control | [11] 100 % of control and 105 % of control | [12] 110 % of control and 97 % of control | [13] 105 % of control and 115 % of control | [14] 100 % of control and 120 % of control

Cn1c(NCCN2CCOCC2)c(C(=O)/C=C/c2ccccc2)c(=O)n(C)c1=O
inactive: [1] 98 % of control | [2] 92 % of control | [3] 95 % of control

CCCCCCCCCCCCCCCCCCSC1=CC(=O)C(Cl)=C(Cl)C1=O
inactive: dose: 10.0 mg/kg/injection, schedule: Q01DX009 (ip), vehicle: Klucel (hydroxypropylcellulose) (HPC) 97 % of control | dose: 20.0 mg/kg/injection, schedule: Q01DX009 (ip), vehicle: Klucel (hydroxypropylcellulose) (HPC) 90 % of control

C=C1C(=O)OC2CC3(C)OC3CC(O)/C(C)=C/C(OC(=O)C(C)C)C12 (configuration not stated)
inactive: dose: 6.25 mg/kg/injection, schedule: Q01DX009 (ip), vehicle: saline 110 % of control | [15] 112 % of control | [16] 121 % of control

C(CCC1CO1)CC1CO1 (configuration not stated)
inactive: dose: 100.0 mg/kg/injection, schedule: Q04DX002 (ip), vehicle: Klucel (hydroxypropylcellulose) (HPC) 122 % of control

CCN=C(N)Nc1ccc(NC(=O)c2ccc(C(=O)Nc3ccc(NC(N)=NCC)cc3)cc2)cc1
inactive: dose: 3.13 mg/kg/injection, schedule: Q04DX003 (ip), vehicle: saline with Tween-80 113 % of control | [17] 122 % of control | dose: 12.5 mg/kg/injection, schedule: Q01DX009 (ip), vehicle: saline with Tween-80 109 % of control and 113 % of control
active: dose: 3.13 mg/kg/injection, schedule: Q01DX009 (ip), vehicle: saline with Tween-80 163 % of control | dose: 6.25 mg/kg/injection, schedule: Q01DX009 (ip), vehicle: saline with Tween-80 168 % of control | [11] 200 % of control | [12] 181 % of control

O=C(O)[C@@H]1C[C@@H](O)CN1
inactive: [7] 96 % of control | [8] 96 % of control | [9] 100 % of control

O/N=C\C[n+]1cc2ccccc2cc1/C=N\O
inactive: [1] 112 % of control | [2] 109 % of control

Cc1nc(Nc2ccc(F)cc2)c2c(-c3ccccc3)c[nH]c2n1
inactive: [18] 90 % of control | [19] 88 % of control

O=[N+]([O-])c1ccc(/C(=C\c2ccc(-c3ccccc3)o2)S(=O)(=O)c2ccccc2)o1
inactive: [15] 89 % of control | [16] 89 % of control

O=C1C[N+]2(Cc3ccccc3)CCC1CC2
inactive: [15] 101 % of control | [16] 108 % of control | [7] 90 % of control

CC(=O)Nc1ccc(S(=O)(=O)N/N=C\c2cc([N+](=O)[O-])ccc2O)cc1
inactive: [1] 103 % of control | [2] 101 % of control | [3] 93 % of control

Cc1ccc(S(=O)(=O)OC[C@H]2CCCC[C@H]2COS(=O)(=O)c2ccc(C)cc2)cc1
inactive: dose: 100.0 mg/kg/injection, schedule: Q04DX003 (ip), vehicle: Klucel (hydroxypropylcellulose) (HPC) 113 % of control | dose: 200.0 mg/kg/injection, schedule: Q04DX003 (ip), vehicle: Klucel (hydroxypropylcellulose) (HPC) 114 % of control | dose: 400.0 mg/kg/injection, schedule: Q04DX003 (ip), vehicle: Klucel (hydroxypropylcellulose) (HPC) 119 % of control

CCC(=O)NC(Cc1ccsc1)C(=O)O (configuration not stated)
inactive: [15] 103 % of control | [16] 107 % of control | [7] 98 % of control | [8] 90 % of control | [9] 90 % of control

Cc1ccc(-c2nc3ncnc(N)c3[nH]2)cc1
inactive: [17] 100 % of control | [10] 100 % of control | [11] 100 % of control and 107 % of control and 114 % of control | [12] 102 % of control and 113 % of control | [13] 108 % of control and 124 % of control | [14] 116 % of control

O=C1CCCCCC2=NC12 (configuration not stated)
inactive: dose: 6.25 mg/kg/injection, schedule: Q01DX005 (ip), vehicle: Klucel (hydroxypropylcellulose) (HPC) 105 % of control and 90 % of control | dose: 12.5 mg/kg/injection, schedule: Q01DX005 (ip), vehicle: Klucel (hydroxypropylcellulose) (HPC) 103 % of control and 109 % of control | dose: 25.0 mg/kg/injection, schedule: Q01DX005 (ip), vehicle: Klucel (hydroxypropylcellulose) (HPC) 113 % of control and 118 % of control | [18] 116 % of control

Nc1ncnc2c1ncn2C1OC(COP(=O)(O)OP(=O)(O)OP(=O)(O)O)C(OP(=O)(O)OP(=O)(O)OP(=O)(O)O)C1O (configuration not stated) (tested in a mixture with another compound)
inactive: dose: 60.0 mg/kg/injection, schedule: Q01DX005 (ip), vehicle: Klucel (hydroxypropylcellulose) (HPC) 93 % of control | dose: 120.0 mg/kg/injection, schedule: Q01DX005 (ip), vehicle: Klucel (hydroxypropylcellulose) (HPC) 103 % of control | dose: 240.0 mg/kg/injection, schedule: Q01DX005 (ip), vehicle: Klucel (hydroxypropylcellulose) (HPC) 101 % of control

O=C(O)CCC(=O)N(CCP(c1ccccc1)c1ccccc1)CCP(c1ccccc1)c1ccccc1
inactive: [20] 111 % of control | [21] 112 % of control

COc1ccc(C2=C(c3ccccc3)C(C)(C)Oc3ccc4ccccc4c32)cc1
inactive: [18] 95 % of control | [19] 95 % of control | dose: 200.0 mg/kg/injection, schedule: Q01DX005 (ip), vehicle: Klucel (hydroxypropylcellulose) (HPC) 104 % of control

CN1Cc2c(N)cccc2C(c2ccccc2)C1 (configuration not stated)
inactive: [20] 96 % of control | [21] 105 % of control

CS1(C)=NC(=O)C2=C(N=1)c1ccccc1S2(=O)=O
inactive: [4] 97 % of control | [5] 94 % of control | [6] 89 % of control

CCOc1c(N=Nc2ccccc2C)c(C)nn1C(=S)SC
inactive: dose: 60.0 mg/kg/injection, schedule: Q01DX005 (ip), vehicle: Klucel + Tween-80 95 % of control | dose: 120.0 mg/kg/injection, schedule: Q01DX005 (ip), vehicle: Klucel + Tween-80 92 % of control

Reference: PubChem BioAssay AID330 (DTP/NCI, 2004)
